Six molecules from PubChem BioAssay (NCI) can be followed below.

Test systems include SF-295 CNS; UACC-257 melanoma; SF-268 CNS; MCF7 breast; NCI-H460 lung; SNB-19 CNS; HOP-92 NSCLC; A549 NSCLC; OVCAR-3 ovarian; A498 renal.
Holding throughout (experiment): NCI-60 cell line screen, 48 h

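In this assay, cells in 96-well plates receive the compound at five concentrations for 48 hours. Endpoints are linearly interpolated between the surrounding concentrations. GI50 marks 50% less growth. TGI: concentration producing complete growth inhibition.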

With `O=C(COC(=O)[C@H](C[Se][Se]C[C@H](NC(=O)c1ccc(Br)cc1F)C(=O)OCC(=O)c1ccc(F)cc1)NC(=O)c1ccc(Br)cc1F)c1ccc(F)cc1`, the GI50 in the test with SF-295 CNS is 51.1 nM; in the test with UACC-257 melanoma, 1820 nM; in the test with SF-268 CNS, 520 nM; with MCF7 breast, 984 nM; in the test with NCI-H460 lung it was 345 nM; in the test with SNB-19 CNS, 444 nM. Further, the GI50 was 2730 nM with HOP-92 NSCLC, 1030 nM in the test on A549 NSCLC, 479 nM in the test with OVCAR-3 ovarian and 306 nM in the test on A498 renal. Besides, the TGI in the test on SF-295 CNS came out at 180 nM; with UACC-257 melanoma, 4390 nM; in the test with SF-268 CNS, 1180 nM; in the test on MCF7 breast, 3060 nM; in the test on NCI-H460 lung, 1270 nM; with SNB-19 CNS, 1630 nM. The TGI was 6660 nM with HOP-92 NSCLC, 4450 nM in the test with A549 NSCLC, 1270 nM with OVCAR-3 ovarian and 1040 nM in the test on A498 renal.
Consider `CN(C)C(=O)c1cc2cnc(Nc3ccc(N4CCNCC4)cn3)nc2n1C1CCCC1`, for which the GI50 was 13100 nM in the test with SF-295 CNS; 15700 nM in the test on UACC-257 melanoma; 14100 nM in the test on SF-268 CNS; 592 nM in the test on MCF7 breast; 11300 nM in the test with NCI-H460 lung; 14200 nM with SNB-19 CNS. Moreover, the GI50 in the test with HOP-92 NSCLC is 867 nM; in the test on A549 NSCLC it was 12000 nM; in the test on OVCAR-3 ovarian, 21000 nM; in the test on A498 renal, 11800 nM. In addition, the TGI in the test with SF-295 CNS was 42000 nM; in the test with UACC-257 melanoma, 33400 nM; with SF-268 CNS, 38300 nM; in the test on MCF7 breast, 37200 nM; with NCI-H460 lung, 43800 nM; in the test on SNB-19 CNS, > 100000 nM. In addition, the TGI in the test with HOP-92 NSCLC worked out at 61600 nM; in the test on A549 NSCLC, 41600 nM; in the test with OVCAR-3 ovarian it was 69200 nM; in the test on A498 renal, 30900 nM.
Regarding `CN1CCN(Cc2ccc(NC(=O)c3cncc(C#Cc4cnc5cccnn45)c3)cc2C(F)(F)F)CC1`, the GI50 in the test on SF-295 CNS is 1490 nM; in the test on UACC-257 melanoma it was 1400 nM; in the test on SF-268 CNS, 1190 nM; in the test with MCF7 breast, 707 nM; with NCI-H460 lung, 1270 nM; in the test with SNB-19 CNS, 1800 nM. The GI50 in the test with HOP-92 NSCLC is 492 nM; with A549 NSCLC it was 1570 nM; with OVCAR-3 ovarian it was 1760 nM; in the test with A498 renal it was 907 nM. Besides, the TGI stood at 5420 nM in the test with SF-295 CNS; 5040 nM with UACC-257 melanoma; 2810 nM in the test with SF-268 CNS; 4770 nM in the test with MCF7 breast; 3440 nM in the test with NCI-H460 lung; 5620 nM in the test with SNB-19 CNS. The TGI in the test on HOP-92 NSCLC is 3130 nM; in the test on A549 NSCLC it was 5050 nM; in the test with OVCAR-3 ovarian it was 5500 nM; with A498 renal, 1860 nM.
Turning to `O=C(Nc1cccc(C(F)(F)F)c1)Nc1cc(S(=O)(=O)NC2CC2)ccc1-c1ccsc1`, the GI50 is 3160 nM with SF-295 CNS; 3840 nM in the test with UACC-257 melanoma; 5950 nM in the test on SF-268 CNS; 3260 nM in the test on MCF7 breast; 3400 nM in the test with NCI-H460 lung; 2990 nM with SNB-19 CNS. Moreover, the GI50 was 1730 nM with HOP-92 NSCLC, 3680 nM in the test with A549 NSCLC, 4020 nM in the test on OVCAR-3 ovarian and 2450 nM with A498 renal. Moreover, the TGI in the test with SF-295 CNS amounted to 11800 nM; in the test on UACC-257 melanoma, 14400 nM; in the test with SF-268 CNS, 21300 nM; with MCF7 breast, 15000 nM; in the test on NCI-H460 lung it was 11600 nM; with SNB-19 CNS, 13000 nM. The TGI in the test with HOP-92 NSCLC came to 7450 nM; in the test on A549 NSCLC, 14700 nM; with OVCAR-3 ovarian, 14900 nM; in the test on A498 renal, 7310 nM.
Consider `COc1cc2c(cc1OCCCN1CCN(CCCn3c4ccccc4c4ccccc43)CC1)N=C[C@@H]1CCCN1C2=O`, for which the GI50 in the test with SF-295 CNS is < 35.9 nM; in the test on UACC-257 melanoma, 209 nM; with SF-268 CNS, 36.2 nM; with MCF7 breast, 28.5 nM; with NCI-H460 lung, 230 nM; in the test with SNB-19 CNS, 274 nM. Further, the GI50 was 28.3 nM with HOP-92 NSCLC, 294 nM with A549 NSCLC, 66.9 nM with OVCAR-3 ovarian and 158 nM in the test with A498 renal. The TGI stood at 235 nM in the test on SF-295 CNS; 461 nM in the test with UACC-257 melanoma; 289 nM in the test with SF-268 CNS; 461 nM in the test with MCF7 breast; 916 nM in the test with NCI-H460 lung; 1170 nM in the test on SNB-19 CNS. For the same molecule, the TGI is 173 nM with HOP-92 NSCLC, 1280 nM with A549 NSCLC, 1160 nM in the test on OVCAR-3 ovarian and 350 nM in the test on A498 renal.
As to `COc1cc([C@H]2c3cc(O)c(OC)cc3C[C@]3(O)[C@@H]2CO[C@@H]3O)ccc1O`, the TGI in the test with SF-295 CNS, in the test on UACC-257 melanoma, in the test with SF-268 CNS, in the test on MCF7 breast, in the test with NCI-H460 lung and in the test on SNB-19 CNS was > 100000 nM in each case. Further, the TGI with HOP-92 NSCLC, in the test with A549 NSCLC, in the test with OVCAR-3 ovarian and in the test on A498 renal was > 100000 nM each time.
